Peptide text beside a SMILES is read from it.
How the values were obtained:
[1] = tested on: galanin binding sites in brain, spinal cord, pancreatic islets and cell lines, gastrointestinal smooth muscle; details: read-out: affinity of high-affinity galanin binding sites; several mammalian species and tissues; cited from earlier work
rat GALR1 receptor [2] = target: T1, rat GALR1 receptor (Rattus norvegicus, UniProt Q62805); assay: biochemical
T1 sequence (Q62805 1-346): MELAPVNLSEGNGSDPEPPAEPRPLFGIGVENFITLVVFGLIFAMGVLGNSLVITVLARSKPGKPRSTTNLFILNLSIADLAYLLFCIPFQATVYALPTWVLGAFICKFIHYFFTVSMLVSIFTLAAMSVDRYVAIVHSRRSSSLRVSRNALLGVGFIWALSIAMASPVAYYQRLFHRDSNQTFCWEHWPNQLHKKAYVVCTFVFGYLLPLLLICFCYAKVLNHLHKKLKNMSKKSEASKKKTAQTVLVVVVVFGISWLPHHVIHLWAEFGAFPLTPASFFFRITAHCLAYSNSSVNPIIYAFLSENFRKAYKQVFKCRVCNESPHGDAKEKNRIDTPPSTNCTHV

rat GALR1 receptor [3] = target: T1, rat GALR1 receptor; assay type: cell-based; parameters: expressed in transfected cells; host or cells: COS-7 (transient); details: for fold less potent than porcine galanin in the rat GalR1 cAMP assay: LM(tk-) rat GALR1
rat GALR2 receptor [4] = target: T2, rat GALR2 receptor (Rattus norvegicus, UniProt O08726); assay: arachidonic acid release in CHO cells stably transfected with rat GALR2 (C-rGalR2-79); assay type: cell-based; parameters: expressed in transfected cells
T2 sequence (O08726 1-372): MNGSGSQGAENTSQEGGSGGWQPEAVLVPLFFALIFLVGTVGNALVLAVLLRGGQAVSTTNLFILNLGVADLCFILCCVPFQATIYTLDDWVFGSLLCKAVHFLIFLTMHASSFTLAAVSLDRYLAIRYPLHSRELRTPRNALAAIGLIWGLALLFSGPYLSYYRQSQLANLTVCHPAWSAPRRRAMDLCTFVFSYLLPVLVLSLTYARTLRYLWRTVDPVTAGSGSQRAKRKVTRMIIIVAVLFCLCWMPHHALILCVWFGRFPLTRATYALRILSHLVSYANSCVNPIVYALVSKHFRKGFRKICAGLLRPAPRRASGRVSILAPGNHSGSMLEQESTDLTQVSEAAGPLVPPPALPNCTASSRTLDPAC
Method: The labeled cells were washed three times with 200 ul HAM's F-12. The wells were then filled with medium (200 uL) and the assay was initiated with the addition of peptides or buffer (22 uL). Cells were incubated for 30 min at 37° C., 5% CO2. Supernatants were transferred to a microtiter plate and evaporated to dryness at 75° C. in a vacuum oven. Samples were then dissolved and resuspended in 25 uL distilled water. Scintillant (300 uL) was added to each well and samples were counted for ^3H in a Trilux plate reader. Data were analyzed using nonlinear regression and statistical techniques available in the GraphPAD Prism package (San Diego, Calif.).

[5] = tested on: [125I]galanin binding sites in rat brain; assay: galanin receptor autoradiography, displacement of [125I]galanin from rat brain tissue sections; details: 5 μM
Method: Male Sprague-Dawley rats (Charles River, Wilmington, Mass.) were euthanized using CO2, decapitated, and their brains immediately removed and frozen on dry ice. Tissue sections were cut at 20 μm using a cryostat and thaw mounted onto gelatin coated slides. Tissues were preincubated in two 10 minute changes of 50 mM Tris-HCl buffer pH 7.4, containing 5 mM MgSO4 and 2 mM EGTA (Sigma). […] After incubation, tissues were dipped twice in ice-cold Tris-HCl buffer (40° C.), followed by a 5 minute wash in ice-cold Tris-HCl buffer (4° C.), then dipped twice in ice-cold deionized water to remove the salts. Sections were placed in X-ray cassettes and apposed to Dupont Cronex MRF 34 Film for 5 days. Films were developed using a Kodak M35A Processor.

rat GALR2 receptor [6] = target: T2, rat GALR2 receptor; assay: voltage clamp currents in Xenopus oocytes injected with rGalR2 mRNA; assay type: cell-based; parameters: expressed in transfected cells; details: 100-1000 nM, oocytes injected with 5-50 pg rGalR2 mRNA, holding potential -80 mV
rat GALR2 receptor [7] = target: T2, rat GALR2 receptor; assay: GTPgamma35S binding to membranes of cells transfected with rat GalR2; assay type: biochemical; parameters: expressed in transfected cells; details: 1 μM peptide, n=3
Method: Membranes from cells transfected with the rat GalR2 receptor were suspended in assay buffer (50 mM Tris, 100 mM NaCl, 5 mM MgCl2, pH 7.4) supplemented with 0.1% BSA, 0.1% bacitracin and 10 μM GDP. Membranes were incubated on ice for 20 minutes, transferred to a 96-well Millipore microtiter GF/C filter plate and mixed with GTPγ^35S (250,000 cpm/sample, specific activity ˜1000 Ci/mmol) plus or minus GTPγS (final concentration=100 μM). Final membrane protein concentration=90 μg/mL. […] Samples collected in the filter plate were treated with scintillant and counted for ^35S in a Trilux (Wallac) liquid scintillation counter.
The signal transduction pathway outlined for rat GalR2 allows for the development of functional assays other than inositol phosphate, calcium, and arachidonic acid determination. One such assay relies on the fact that binding of GTP to a G-protein precedes agonist-dependent activation of phospholipase C. we examined whether galanin-dependent activation of GALR2 could be monitored by the binding of GTPγ^35S to membranes from stably transfected cells.

rat GALR2 receptor [8] = target: T2, rat GALR2 receptor; assay: intracellular calcium mobilization (Fura-2) in cells transfected with rat GALR2; assay type: cell-based; parameters: expressed in transfected cells
Method: The intracellular free calcium concentration may be measured by microspectroflourometry using the fluorescent indicator dye Fura-2/AM (Bush et al. 1991). Stably transfected cells are seeded onto a 35 mm culture dish containing a glass coverslip insert. Cells are washed with HBS and loaded with 100 μL of Fura-2/AM (10 μM) for 20 to 40 min. After washing with HBS to remove the Fura-2/AM solution, cells are equilibrated in HBS for 10 to 20 min. Cells are then visualized under the 40× objective of a Leitz Fluovert FS microscope and fluorescence emission is determined at 510 nm with excitation wavelengths alternating between […]. Raw fluorescence data are converted to calcium concentrations using standard calcium concentration curves and software analysis techniques.

human GALR2 receptor = target: T3, human GALR2 receptor (Homo sapiens, UniProt O43603); assay: MAP kinase phosphorylation (western blot) in CHO cells expressing human GALR2; assay type: cell-based; details: CHO human GALR2, 10 minutes, human galanin (10 μM)
T3 construct: To obtain a full-length hGALR2 clone, superpools of a human heart cDNA library were screened by PCR; expressed in transfected cells
T3 sequence (O43603 1-387): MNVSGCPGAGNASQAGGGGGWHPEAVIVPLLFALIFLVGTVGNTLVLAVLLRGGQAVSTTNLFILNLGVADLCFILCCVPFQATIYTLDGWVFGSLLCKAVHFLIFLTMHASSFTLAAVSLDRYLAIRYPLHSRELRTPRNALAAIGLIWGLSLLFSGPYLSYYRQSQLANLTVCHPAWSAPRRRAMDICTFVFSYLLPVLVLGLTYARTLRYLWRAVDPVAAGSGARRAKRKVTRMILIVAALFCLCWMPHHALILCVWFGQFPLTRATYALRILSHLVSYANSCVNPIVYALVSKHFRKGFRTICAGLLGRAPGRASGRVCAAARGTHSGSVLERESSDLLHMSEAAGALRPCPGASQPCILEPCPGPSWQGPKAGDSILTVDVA
Method: (§1) CHO cells expressing either the rat GALR2 receptor or the human GALR2 receptor were plated at ˜50% confluence into well-plates and grown in culture with fetal bovine serum reduced to 0.5% for 2 days. Fresh medium was exchanged for old and then aspirated after 2 hrs. […] Cells were washed with phosphate buffered saline and lysed in 100 uL Laemmli sample buffer (Bio-Rad) containing 5% β-mercaptoethanol. Cell lysate was scraped off the plate, transferred to a microfuge tube on ice, and sonicated for 10-15 seconds. Samples were heated at 100° C. for 3-5 minutes. Insoluble material was collected by centrifugation at 10,000×g for 5 min. Supernatant (20 μL/lane) was loaded onto a 4-20% polyacrylamide Bio-Rad Ready-Gel (10×10 cm) together with a phospho-MAP kinase protein standard (New England BioLabs) and molecular weight markers. […] The phospho-MAP kinase complex was detected by chemiluminescence using Lumiglow reagent (New England BioLabs) and Kodak X-Omat film, with exposure times ranging from 10 to 120 seconds.
(§2) Another functional assay relies on the fact that MAP kinase phosphorylation precedes the activation of phospholipase A2. We tested whether galanin-dependent activation of GALR2 could be monitored by changes in MAP kinase phosphorylation. […]

rat GALR2 receptor [9] = target: T2, rat GALR2 receptor; assay: MAP kinase phosphorylation (western blot) in CHO cells expressing rat GALR2; assay type: cell-based; parameters: expressed in transfected cells; details: CHO rat GALR2, 10 minutes, human galanin (10 μM)
Method: as §1, §2

[^125I]porcine galanin
Kd [1]: 0.5 to 1 nM

CC(C)C[C@H](NC(=O)[C@H](CC(C)C)NC(=O)[C@@H](Cc1c[nH]c2ccccc12)NC(=O)[C@H](Cc1ccccc1)NC(=O)[C@@H](Cc1c[nH]c2ccccc12)NC(=O)[C@H](CCC(N)=O)NC(=O)[C@H](CCC(N)=O)NC(=O)[C@@H]1CCCN1C(=O)[C@H](CCCCN)NC(=O)[C@@H]1CCCN1C(=O)[C@@H](CCCNC(=N)N)NC(=O)[C@@H]1CCCN1C(=O)CNC(=O)[C@H](CC(C)C)NC(=O)[C@H](CC(C)C)NC(=O)[C@H](Cc1ccc(O)cc1)NC(=O)CNC(=O)[C@H](C)NC(=O)[C@H](CO)NC(=O)[C@H](CC(N)=O)NC(=O)[C@H](CC(C)C)NC(=O)[C@@H](NC(=O)[C@H](Cc1c[nH]c2ccccc12)NC(=O)CN)[C@@H](C)O)C(N)=O [Peptide C7, C7] (HELM PEPTIDE1{G.W.T.L.N.S.A.G.Y.L.L.G.P.[dR].P.K.P.Q.Q.[dW].F.[dW].L.L.[am]}$$$$V2.0; N-terminus and C-terminus assumed)
Ki (rat GALR1 receptor [2]): 16.2 nM | EC50 (rat GALR1 receptor [3]; read-out: LM(tk-) Rat GALR1 cAMP assay EC50): 0.52 nM

CC[C@H](C)[C@H](NC(=O)[C@H](C)NC(=O)[C@H](Cc1c[nH]cn1)NC(=O)[C@@H]1CCCN1C(=O)CNC(=O)[C@H](CC(C)C)NC(=O)[C@H](CC(C)C)NC(=O)[C@H](Cc1ccc(O)cc1)NC(=O)CNC(=O)[C@H](C)NC(=O)[C@H](CO)NC(=O)[C@H](CC(N)=O)NC(=O)[C@H](CC(C)C)NC(=O)[C@@H](NC(=O)[C@H](Cc1c[nH]c2ccccc12)NC(=O)CNC(=O)[C@H](CCCNC(=N)N)NC(=O)[C@H](CCCCN)NC(=O)[C@H](CCC(=O)O)NC(=O)[C@H](CCCCN)NC(=O)[C@@H](NC(=O)[C@@H]1CCCN1C(=O)[C@H](CO)NC(=O)CNC(=O)[C@@H](N)CC(C)C)C(C)C)[C@@H](C)O)C(=O)N[C@@H](CC(=O)O)C(=O)N[C@@H](CC(N)=O)C(=O)N[C@@H](Cc1c[nH]cn1)C(=O)N[C@@H](CCCNC(=N)N)C(=O)N[C@@H](CO)C(=O)N[C@@H](Cc1ccccc1)C(=O)N[C@@H](Cc1c[nH]cn1)C(=O)N[C@@H](CC(=O)O)C(=O)N[C@@H](CCCCN)C(=O)N[C@@H](Cc1ccc(O)cc1)C(=O)NCC(=O)N[C@@H](CC(C)C)C(=O)N[C@@H](C)C(N)=O [porcine galanin (−9) to (+29)]
fold less potent than porcine galanin in the rat GalR2 arachidonic acid assay (rat GALR2 receptor [4]): 2 fold | fold less potent than porcine galanin in the rat GalR1 cAMP assay (rat GALR1 receptor [3]): 400 fold

CC[C@H](C)[C@H](NC(=O)[C@H](C)NC(=O)[C@H](Cc1c[nH]cn1)NC(=O)[C@@H]1CCCN1C(=O)CNC(=O)[C@H](CC(C)C)NC(=O)[C@H](CC(C)C)NC(=O)[C@H](Cc1ccc(O)cc1)NC(=O)CNC(=O)[C@H](C)NC(=O)[C@H](CO)NC(=O)[C@H](CC(N)=O)NC(=O)[C@H](CC(C)C)NC(=O)[C@@H](NC(=O)[C@H](Cc1c[nH]c2ccccc12)NC(=O)CNC(=O)[C@H](CCCNC(=N)N)NC(=O)[C@H](CCCCN)NC(=O)[C@H](CCC(=O)O)NC(=O)[C@H](CCCCN)NC(=O)[C@@H](NC(=O)[C@@H]1CCCN1C(=O)[C@@H](N)CO)C(C)C)[C@@H](C)O)C(=O)N[C@@H](CC(=O)O)C(=O)N[C@@H](CC(N)=O)C(=O)N[C@@H](Cc1c[nH]cn1)C(=O)N[C@@H](CCCNC(=N)N)C(=O)N[C@@H](CO)C(=O)N[C@@H](Cc1ccccc1)C(=O)N[C@@H](Cc1c[nH]cn1)C(=O)N[C@@H](CC(=O)O)C(=O)N[C@@H](CCCCN)C(=O)N[C@@H](Cc1ccc(O)cc1)C(=O)NCC(=O)N[C@@H](CC(C)C)C(=O)N[C@@H](C)C(N)=O [porcine galanin (−7) to (+29)]
fold less potent than porcine galanin in the rat GalR2 arachidonic acid assay (rat GALR2 receptor [4]): 3 fold | fold less potent than porcine galanin in the rat GalR1 cAMP assay (rat GALR1 receptor [3]): 350 fold

porcine galanin (1-29)
displacement of [125I]galanin binding from rat brain tissue sections [5]: complete displacement | activation of rapid inward currents (oocytes responding) (rat GALR2 receptor [6]): 36 of 46 | binding of GTPγ35S in presence of peptide (rat GALR2 receptor [7]; C-rGALR2-79 membranes, without peptide 8,014±113 cpm): 10,292±104 cpm | binding of GTPγ35S in presence of peptide (rat GALR2 receptor [7]; L-rGalR2I-4 membranes (intronless), without peptide 27,545±504 cpm): 29,011±526 cpm | effect on intracellular calcium levels (rat GALR2 receptor [8]; COS-7 cells transfected with rat GALR2 cDNA): no effect

rat galanin
increase of intracellular free [Ca+2] (Δ[Ca+2]) (rat GALR2 receptor [8]; 1 μM peptide, C-rGALR2-79, n=9, not in untransfected cells): 310 ± 70 nM

Human galanin
phosphorylated MAP kinase levels (human GALR2 receptor): increase | phosphorylated MAP kinase levels (rat GALR2 receptor [9]): increase
